Source: PMC8222254, “Self-assembly of an anion receptor with metal-dependent kinase inhibition and potent in vitro anti-cancer properties” (Nature Communications, 2021)
Several values for one entry are separate records, joined by “and”; a condition that tells them apart may be missing. Identical values can stand only once.

Key:
Assay in all cases: Kinase inhibition screen, cell-free 33P ATP assay at 10 μM
Format in all cases: biochemical
[1] = target: T1, 140 purified human kinases (Homo sapiens, UniProt Q99683)
T1 sequence (Q99683 1-1374): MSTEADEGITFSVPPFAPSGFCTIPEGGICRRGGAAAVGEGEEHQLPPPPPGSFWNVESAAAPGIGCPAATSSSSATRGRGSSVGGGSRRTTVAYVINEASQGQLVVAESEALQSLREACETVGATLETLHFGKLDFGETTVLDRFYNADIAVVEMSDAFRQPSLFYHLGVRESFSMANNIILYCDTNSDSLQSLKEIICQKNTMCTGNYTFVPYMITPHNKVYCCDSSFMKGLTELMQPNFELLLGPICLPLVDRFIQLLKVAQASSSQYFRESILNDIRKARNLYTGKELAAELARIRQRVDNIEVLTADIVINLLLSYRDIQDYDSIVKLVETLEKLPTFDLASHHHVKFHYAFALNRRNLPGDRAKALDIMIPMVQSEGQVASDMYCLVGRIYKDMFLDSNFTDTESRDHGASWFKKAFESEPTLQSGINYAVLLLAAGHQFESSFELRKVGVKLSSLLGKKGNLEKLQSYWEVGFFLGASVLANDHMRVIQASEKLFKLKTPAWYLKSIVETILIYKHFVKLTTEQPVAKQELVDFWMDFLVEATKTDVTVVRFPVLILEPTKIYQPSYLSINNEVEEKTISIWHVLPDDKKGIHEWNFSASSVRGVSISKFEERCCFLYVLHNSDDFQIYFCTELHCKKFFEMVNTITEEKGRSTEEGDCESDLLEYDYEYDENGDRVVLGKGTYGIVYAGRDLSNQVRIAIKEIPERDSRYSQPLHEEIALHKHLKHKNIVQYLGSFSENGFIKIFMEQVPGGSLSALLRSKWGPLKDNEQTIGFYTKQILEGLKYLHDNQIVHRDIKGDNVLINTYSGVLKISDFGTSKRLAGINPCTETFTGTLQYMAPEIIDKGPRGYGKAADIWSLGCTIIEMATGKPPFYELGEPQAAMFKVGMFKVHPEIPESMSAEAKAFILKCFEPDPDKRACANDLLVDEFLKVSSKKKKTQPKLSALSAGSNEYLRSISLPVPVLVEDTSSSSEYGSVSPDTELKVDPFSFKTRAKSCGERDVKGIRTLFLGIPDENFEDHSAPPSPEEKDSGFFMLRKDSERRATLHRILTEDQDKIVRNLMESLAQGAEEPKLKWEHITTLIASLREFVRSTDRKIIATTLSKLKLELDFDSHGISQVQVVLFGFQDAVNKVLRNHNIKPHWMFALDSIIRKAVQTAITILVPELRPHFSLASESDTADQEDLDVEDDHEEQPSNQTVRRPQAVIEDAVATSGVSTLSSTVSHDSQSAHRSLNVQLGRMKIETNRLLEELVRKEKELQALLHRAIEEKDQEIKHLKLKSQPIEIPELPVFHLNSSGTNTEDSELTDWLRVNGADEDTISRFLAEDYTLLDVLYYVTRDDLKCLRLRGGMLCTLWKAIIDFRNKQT
In short: (§1)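 Radiometric ^33P ATP cell-free format with purified enzymes; both complexes run at 10 μM in duplicate, results plotted on a kinome map via HGNC symbols.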

[2] = target: 140 purified human kinases (Homo sapiens, UniProt P51812)
140 purified human kinases (Homo sapiens, UniProt P51812), sequence (P51812 whole entry): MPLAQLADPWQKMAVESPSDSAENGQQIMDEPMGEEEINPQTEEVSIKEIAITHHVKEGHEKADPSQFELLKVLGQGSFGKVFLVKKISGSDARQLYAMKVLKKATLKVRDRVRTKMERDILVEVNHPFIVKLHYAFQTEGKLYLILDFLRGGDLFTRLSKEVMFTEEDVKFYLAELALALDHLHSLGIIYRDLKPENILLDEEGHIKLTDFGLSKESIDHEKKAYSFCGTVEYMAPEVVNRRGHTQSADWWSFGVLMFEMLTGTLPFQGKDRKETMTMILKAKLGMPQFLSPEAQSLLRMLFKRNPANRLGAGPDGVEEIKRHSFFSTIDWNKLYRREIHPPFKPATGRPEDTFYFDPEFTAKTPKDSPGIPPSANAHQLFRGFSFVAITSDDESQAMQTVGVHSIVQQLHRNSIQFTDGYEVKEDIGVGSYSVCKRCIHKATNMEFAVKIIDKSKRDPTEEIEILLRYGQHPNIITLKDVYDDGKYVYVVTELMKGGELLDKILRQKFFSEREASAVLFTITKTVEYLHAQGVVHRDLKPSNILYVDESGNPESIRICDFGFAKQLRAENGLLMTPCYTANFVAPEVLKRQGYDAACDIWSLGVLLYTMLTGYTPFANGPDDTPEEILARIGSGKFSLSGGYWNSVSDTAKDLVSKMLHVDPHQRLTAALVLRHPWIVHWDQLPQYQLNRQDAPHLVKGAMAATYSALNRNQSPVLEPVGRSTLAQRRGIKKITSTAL
In short: as §1

[3] = target: T2, 140 purified human kinases (Homo sapiens, UniProt O14965); conditions: Aurora A
T2 sequence (O14965 1-403): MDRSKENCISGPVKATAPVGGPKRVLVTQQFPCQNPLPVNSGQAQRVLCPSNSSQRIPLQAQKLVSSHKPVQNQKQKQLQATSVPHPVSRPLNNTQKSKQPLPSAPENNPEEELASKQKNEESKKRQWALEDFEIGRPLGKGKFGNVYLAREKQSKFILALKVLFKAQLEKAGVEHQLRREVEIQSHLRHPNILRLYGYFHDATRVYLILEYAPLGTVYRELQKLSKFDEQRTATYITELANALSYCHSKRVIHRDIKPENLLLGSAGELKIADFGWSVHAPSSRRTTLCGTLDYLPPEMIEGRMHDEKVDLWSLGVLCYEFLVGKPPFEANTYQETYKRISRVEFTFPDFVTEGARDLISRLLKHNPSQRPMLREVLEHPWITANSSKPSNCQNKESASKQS
In short: as §1

Src = target: T3, Src (Homo sapiens, UniProt P12931); conditions: for kinase activity of Src: 10 μM complex, cell-free screen; for % Activity Run 1 / % Activity Run 2: 10 µM
T3 construct: His tag (N); host or cells: baculovirus expression system
T3 sequence (P12931 whole entry): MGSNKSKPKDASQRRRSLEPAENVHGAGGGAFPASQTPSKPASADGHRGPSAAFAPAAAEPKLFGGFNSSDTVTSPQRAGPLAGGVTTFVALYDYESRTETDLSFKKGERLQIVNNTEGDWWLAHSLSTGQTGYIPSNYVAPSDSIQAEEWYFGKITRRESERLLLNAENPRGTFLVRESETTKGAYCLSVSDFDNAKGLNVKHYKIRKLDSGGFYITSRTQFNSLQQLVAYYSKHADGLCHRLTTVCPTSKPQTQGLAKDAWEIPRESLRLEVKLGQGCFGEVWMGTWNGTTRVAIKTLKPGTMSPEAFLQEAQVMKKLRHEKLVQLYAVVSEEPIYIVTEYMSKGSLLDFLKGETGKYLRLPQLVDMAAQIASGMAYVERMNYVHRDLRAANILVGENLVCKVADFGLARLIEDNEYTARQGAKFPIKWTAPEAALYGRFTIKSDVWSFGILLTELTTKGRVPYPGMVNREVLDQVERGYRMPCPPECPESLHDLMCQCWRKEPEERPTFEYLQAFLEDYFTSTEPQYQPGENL
In short: as §1

[4] = target: T4, 140 purified human kinases (Homo sapiens, UniProt O15264); conditions: p38d MAPK
T4 sequence (O15264 1-365): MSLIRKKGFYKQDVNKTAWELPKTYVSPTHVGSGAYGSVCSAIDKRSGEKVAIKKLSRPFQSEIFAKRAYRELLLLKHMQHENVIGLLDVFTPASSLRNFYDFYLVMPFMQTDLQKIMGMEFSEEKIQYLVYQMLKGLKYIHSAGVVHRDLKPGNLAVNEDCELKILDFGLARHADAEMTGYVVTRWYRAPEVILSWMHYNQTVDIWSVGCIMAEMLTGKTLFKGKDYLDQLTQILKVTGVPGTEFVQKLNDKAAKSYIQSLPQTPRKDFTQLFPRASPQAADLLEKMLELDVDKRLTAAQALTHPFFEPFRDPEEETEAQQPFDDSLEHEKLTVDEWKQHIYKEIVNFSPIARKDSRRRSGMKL
In short: as §1

## [Cu+2].[Cu+2].[Cu+2].c1ccc(-c2csc(NCCN(CCNc3nc(-c4ccccn4)cs3)CCNc3nc(-c4ccccn4)cs3)n2)nc1.c1ccc(-c2csc(NCCN(CCNc3nc(-c4ccccn4)cs3)CCNc3nc(-c4ccccn4)cs3)n2)nc1 [[L2Cu3]6+]
[1]; ASK1
  % Inhibition Run 1: 16.4%
  % Inhibition Run 2: 15.5%
  % Inhibition, Mean: 16%
  mean % activity: 84%
[1]; ASK1, Run 1
  % activity: 83.6%
[1]; ASK1, Run 2
  % activity: 84.5%
[2]; RSK2
  % Inhibition Run 1: 87.4%
  % Inhibition Run 2: 87.7%
  % Inhibition, Mean: 88%
  mean % activity: 12%
[2]; RSK2, Run 1
  % activity: 12.6%
[2]; RSK2, Run 2
  % activity: 12.3%
[3]
  % Inhibition Run 1: 30.9%
  % Inhibition Run 2: 28.1%
  % Inhibition, Mean: 30%
  mean % activity: 71%
[3]; Run 1
  % activity: 69.1%
[3]; Run 2
  % activity: 71.9%
Src
  kinase activity of Src: increased
Src; Src
  % Activation, Mean value: 115%
  % Inhibition Run 1: -109.2%
  % Inhibition Run 2: -121.7%
  % Inhibition, Mean: -115%
  mean % activity: 215%
  % Activity Run 1: 209.20%
  % Activity Run 2: 221.70%
Src; Src, Run 1
  % activity: 209.2%
Src; Src, Run 2
  % activity: 221.7%
[4]
  % Activation, Mean value: 14%
  % Inhibition Run 1: -9.9%
  % Inhibition Run 2: -17.9%
  % Inhibition, Mean: -14%
  mean % activity: 114%
[4]; Run 1
  % activity: 109.9%
[4]; Run 2
  % activity: 117.9%
[4]; 10 µM
  % Activity Run 1: 109.90%
  % Activity Run 2: 117.90%

## CC(=O)[O-].CC(=O)[O-].CC(=O)[O-].CC(=O)[O-].CC(=O)[O-].CC(=O)[O-].[Zn+2].[Zn+2].[Zn+2].c1ccc(-c2csc(NCCN(CCNc3nc(-c4ccccn4)cs3)CCNc3nc(-c4ccccn4)cs3)n2)nc1.c1ccc(-c2csc(NCCN(CCNc3nc(-c4ccccn4)cs3)CCNc3nc(-c4ccccn4)cs3)n2)nc1 [[L2Zn3]6+]
[1]; ASK1
  % Inhibition, Mean: 27%
  % Inhibition, Run 1 / Run 2: 31% and 24%
  mean % activity: 73%
[1]; ASK1, duplicate runs
  % activity: 70% and 76%
[2]; RSK2
  % Inhibition, Mean: 44%
  % Inhibition, Run 1 / Run 2: 50% and 39%
  mean % activity: 56%
[2]; RSK2, duplicate runs
  % activity: 50% and 61%
[3]
  % Inhibition, Mean: 83%
  % Inhibition, Run 1 / Run 2: 84% and 83%
  mean % activity: 17%
[3]; 10 µM
  % Activity inhibition Mean: 83.5%
  % Activity inhibition Run 1: 84%
  % Activity inhibition Run 2: 83%
  % Activity remaining Run 1: 16%
  % Activity remaining Run 2: 17%
[3]; duplicate runs
  % activity: 16% and 17%
Src
  kinase activity of Src: increased
Src; Src
  % Activation, Mean value: 75%
  % Inhibition, Mean: -75%
  mean % activity: 175%
  % Activity Run 1: 169.0%
  % Activity Run 2: 180.0%
Src; Src, duplicate runs
  % activity: 169% and 180%
[4]
  % Activation, Mean value: 4.4%
  % Inhibition, Mean: -4.4%
  % Inhibition, Run 1 / Run 2: -6% and -2.8%
  mean % activity: 104%
[4]; duplicate runs
  % activity: 106% and 103%
